Marks after values point to notes of the source that are not given here.
Columns and labels:
Format in all cases: cell-based
[1] = tested on: HaCaT human keratinocyte cell line; assay: UV B protection of HaCaT keratinocytes, topical application model (Protocol I, SRB viability); settings: for % UV B protection as compared to control: Table B, Topical model; for UV protection UV B: summary in words, Table I, HaCaT, topical and oral protocols not separated
Description: (§1) The protocol is based on evaluating the reduction in photo damage caused by UV A and UV B in HaCaT human keratinocyte cell line. The cell viability is measured by Sulphorhodamine B assay (SRB assay) after exposure to UV rays. The percentage of UV protection is calculated based on the number of viable cells in the control (untreated) and test HaCaT human keratinocytes (treated with the labdane-diterpenoids based composition of the present invention) after UV exposure. The photoprotection assays to screen compounds for their UV protection efficacy during topical and oral applications as discussed in J Am Acad Dermatol 2003; 49: 458-472 is adopted as a reference.
(§2) Protocol I—Screening compounds suited for topical applications for UV protection efficacy 0.5×10^4 HaCaT human keratinocyte cells/well are counted and seeded into a 96 well micro titer plates. The cells are incubated at 37° C. in 5% CO2 for 24 hours. The growth medium is then removed and replaced with medium containing varying concentrations of the labdane-diterpenoids based composition of the present invention. The cells are immediately exposed to ultraviolet irradiation and further incubated for 72 hours. After 72 hours, the cell viability is determined by SRB assay.
(§3) The UV A exposure in both the protocols involves three UV A bulbs providing 108 watts of power. The plates are exposed for 1 hour at a distance of 5 cm from the source of light. The UV B exposure in both the protocols involves three UV B bulbs which provide 100 μwatt/cm^2 or 0.14 J/cm^2 irradiation dose. The plates are exposed for 7 minutes at a distance of 30 cm from the source of light.

[2] = tested on: B16F1 mouse melanoma cells; assay: Intracellular melanin enhancement; settings: for Melanin enhancement: summary in words, Table I
Description: B16F1 mouse melanoma cells are treated with varying concentrations of actives I, II and III and other optional actives or combinations thereof at a time interval of 3 days for nine consecutive days. The intracellular melanin in both the controls and test B16F1 mouse melanoma cells is extracted by 1 N NaOH and subjected to a heat treatment at 100° C. The extracted melanin is estimated at 405 nm in a Fluostar Optima Microplate Reader.

[3] = tested on: HaCaT human keratinocyte cell line; assay: UV A protection of HaCaT keratinocytes, oral application model (Protocol II)
Description: as §1
(§4) Protocol II—Screening compounds suited for oral applications for UV protection efficacy 0.5×10^4 HaCaT human keratinocyte cells/well are counted and seeded into a 96 well micro titer plates. The cells are incubated at 37° C. in 5% CO2 for 24 hours. The growth medium is then removed and replaced with medium containing varying concentrations of the labdane-diterpenoids based composition of the present invention. The cells are then incubated for 24 hours to be followed by UV treatment. The UV treated cells are further incubated for 48 hours after which, cell viability is determined using the SRB or neutral red uptake assays.
as §3

[4] = tested on: HaCaT human keratinocyte cell line; assay: UV B protection of HaCaT keratinocytes, oral application model (Protocol II)
Description: as §1, §4, §3

[5] = tested on: HaCaT human keratinocyte cell line; assay: UV A protection of HaCaT keratinocytes, topical application model (Protocol I, SRB viability); settings: for % UV A protection: Topical model; for UV protection UV A: summary in words, Table I, HaCaT, topical and oral protocols not separated
Description: as §1, §2, §3

cells of the skin = assay: Relative cytotoxicity (summary Table I); settings: summary in words

Row | Structure (SMILES) | % UV B protection as compared to control ([1]; 0.25 μg/ml) [%] | % UV B protection as compared to control ([1]; 0.5 μg/ml) [%] | % UV B protection as compared to control ([1]; 1 μg/ml) | % UV B protection as compared to control ([1]; 2 μg/ml) | % UV B protection as compared to control ([1]; 3 μg/ml) | % UV B protection as compared to control ([1]; 5 μg/ml) | % UV B protection as compared to control ([1]; 12 μg/ml) | UV protection UV B [1] | No. of folds of Melanin Enhancement compared to control ([2]; 0.25 μg/ml) [folds] | No. of folds of Melanin Enhancement compared to control ([2]; 0.5 μg/ml) [folds] | No. of folds of Melanin Enhancement compared to control ([2]; 1 μg/ml) | No. of folds of Melanin Enhancement compared to control ([2]; 2 μg/ml) | No. of folds of Melanin Enhancement compared to control ([2]; 3 μg/ml) | No. of folds of Melanin Enhancement compared to control ([2]; 5 μg/ml) | No. of folds of Melanin Enhancement compared to control ([2]; 12 μg/ml) | Melanin enhancement [2] | % UV A protection ([3]; 0.25 μg/ml) | % UV A protection ([3]; 0.5 μg/ml) | % UV A protection ([3]; 1 μg/ml) | % UV A protection ([3]; 2 μg/ml) | further results
1 | C=C[C@@]1(C)CC(=O)[C@]2(O)[C@@]3(C)[C@@H](O)CCC(C)(C)[C@@H]3[C@H](OC(C)=O)[C@H](O)[C@@]2(C)O1 [Active II, 6β-acetoxy-8,13-epoxy-1α,7β,9α-trihydroxylabd-14-en-11-one] | 0 | 0 | 15* % | 25* % | 28* % | 30* % | 35* % | Moderate | 1 | 1.1 | 1.6* folds | 2.3* folds | 3* folds | 3.45* folds | 3.5* folds | Moderate | 15* % | 25* % | 55* % | 75* % | dose levels still tolerated and effective, relative to the maximum tolerated dose levels of active III ([2]; mouse): 2.4 times; % UV A protection ([3]; 3 μg/ml): 98* %; % UV A protection ([3]; 5 μg/ml): 97* %; % UV A protection ([3]; 12 μg/ml): 98* %; % UV B protection ([4]; 0.25 μg/ml): 10* %; % UV B protection ([4]; 0.5 μg/ml): 15* %; % UV B protection ([4]; 1 μg/ml): 18* %; % UV B protection ([4]; 2 μg/ml): 23* %; % UV B protection ([4]; 3 μg/ml): 30* %; % UV B protection ([4]; 5 μg/ml): 35* %; % UV B protection ([4]; 12 μg/ml): 40* %; % UV A protection ([5]; 0.25 μg/ml): 10%; % UV A protection ([5]; 0.5 μg/ml): 13%; % UV A protection ([5]; 1 μg/ml): 18* %; % UV A protection ([5]; 2 μg/ml): 25* %; % UV A protection ([5]; 3 μg/ml): 35* %; % UV A protection ([5]; 5 μg/ml): 45* %; % UV A protection ([5]; 12 μg/ml): 50* %; UV protection UV A [5]: Moderate
2 | C=C[C@@]1(C)CC(=O)[C@]2(O)[C@@]3(C)[C@@H](O)CCC(C)(C)[C@@H]3[C@H](O)[C@H](OC(C)=O)[C@@]2(C)O1 [Active III, 7β-acetoxy-8,13-epoxy-1α,6β,9α-trihydroxylabd-14-en-11-one] | 0 | 2 | 5% | 5% | 5% | toxic | toxic | Nil | 1 | 1.1 | 1.5* folds | 2* folds | 2.8* folds | toxic | toxic | Moderate | 10% | 15* % | 20* % | 26* % | % UV A protection ([3]; 3 μg/ml): 38* %; % UV A protection ([3]; 5 μg/ml): toxic; % UV A protection ([3]; 12 μg/ml): toxic; Cytotoxicity (cells of the skin): Cytotoxic; % UV B protection ([4]; 0.25 μg/ml): 0%; % UV B protection ([4]; 0.5 μg/ml): 2%; % UV B protection ([4]; 1 μg/ml): 4%; % UV B protection ([4]; 2 μg/ml): 4%; % UV B protection ([4]; 3 μg/ml): 5%; % UV B protection ([4]; 5 μg/ml): toxic; % UV B protection ([4]; 12 μg/ml): toxic; % UV A protection ([5]; 0.25 μg/ml): 5%; % UV A protection ([5]; 0.5 μg/ml): 10%; % UV A protection ([5]; 1 μg/ml): 15* %; % UV A protection ([5]; 2 μg/ml): 20* %; % UV A protection ([5]; 3 μg/ml): 29* %; % UV A protection ([5]; 5 μg/ml): toxic; % UV A protection ([5]; 12 μg/ml): toxic; UV protection UV A [5]: Moderate

Reference: patent US20080226571A1, “Compositions and methods to effect enhanced photoprotection against UV A and UV B induced damage of human skin” (priority 2007, published 2008)
